Results from patent publication US6399593B1, “Cyclic regimens using cyclic urea and cyclic amide derivatives” (Wyeth, priority 1999, dated 2002).

Test system: T47D cells
Assay: T47D cell proliferation assay (BrdU incorporation)
Assay type: cell-based
Conditions: second print headed Table 3, individual studies (Exp 1-3)
Procedure: The objective of this assay is the determination of progestational and antiprogestational potency by using a cell proliferation assay in T47D cells. A compound's effect on DNA synthesis in T47D cells is measured.
DMEM:F12 (1:1) (GIBCO, BRL) supplemented with 10% (v/v) fetal bovine serum (not heat-inactivated), 100 U/ml penicillin, […], and 2 mM GlutaMax (GIBCO, BRL).
Minimum Essential Medium (MEM) (#51200-038GIBCO, BRL) phenol red-free supplemented with 0.5% charcoal stripped fetal bovine serum, 100 U/ml penicillin, 200 mg/ml streptomycin, and 2 mM GlutaMax (GIBCO, BRL).
Stock T47D cells are maintained in growth medium. For BrdU incorporation assay, cells are plated in 96-well plates (Falcon, Becton Dickinson Labware) at 10,000 cells/well in growth medium. […]
At the end of BrdU labeling, the medium is removed and BrdU incorporation is measured using a cell proliferation ELISA kit (#RPN 250, Amersham Life Science) according to manufacturer's instructions. […] Then 25 μl of 1 M sulfuric acid is added to each well to stop color reaction and optical density is read in a plate reader at 450 nm within 5 min.
Square root-transformed data are used for analysis of variance and nonlinear dose response curve fitting for both agonist and antagonist modes. […] EC50 or IC50 values are calculated from the retransformed values. […]

EC50: 17 pM
Structure (SMILES): CC(=O)O[C@]1(C(C)=O)CC[C@H]2[C@@H]3C[C@H](C)C4=CC(=O)CC[C@]4(C)[C@H]3CC[C@@]21C [MPA, medroxyprogesterone acetate]
